Data as given in patent US20220243177A1, “METHODS OF CULTURING QUIESCENT HEMATOPOIETIC STEM CELLS AND TREATMENT METHODS” (priority 2019, published 2022).

What was measured:
[1] = tested on: MMP-low and MMP-high HSCs (LSKCD150+CD48-); assay: Single cell division assay; assay type: cell-based, mouse; conditions: for Number of wells with each number of cell division: 0 / Number of wells with each number of cell division: 1 / Number of wells with each number of cell division: Dead / Number of wells with each number of cell division: ≥2: 60 h
Method: Single Cell Division Assay: Single cell cultures were carried out as previously described (Bernitz et al., “Hematopoietic Stem Cells Count and Remember Self-Renewal Divisions,” Cell 167(5): 1296-1309 (2016), which is hereby incorporated by reference in its entirety). Single MMP-low and MMP-high HSCs (LSKCD150^+CD48^−) isolated from GFP-transgenic mice were FACS sorted into individual wells of round-bottomed 96-well plates. Single cells were visually confirmed under light microscope and cultured in serum free Stemspan medium. Wells were supplemented with SCF (100 ng/ml) and TPO (20 ng/ml) (both from R&D system), were incubated at 37° C. in a humidified atmosphere with 5% CO2, and the number of cells per well was monitored daily. The final number of cell divisions per well was assessed at the indicated time points in each experiment. Treatments with concanamycin A (“ConA”) (40-100 nM) or DMSO control were added at the start of culture and left in the wells for the duration of the experiment unless otherwise stated. More than 200 cells per condition were analyzed. Cell Cycle Analysis—Pyronin Y staining. Pyronin Y staining was performed as described in Rimmele et al., “Mitochondrial Metabolism in Hematopoietic Stem Cells Requires Functional FOXO3,” EMBO Rep. 16: 1164-1176 (2015) and Yalcin et al., “Foxo3 Is Essential for the Regulation of Ataxia Telangiectasia Mutated and Oxidative Stress-mediated Homeostasis of Hematopoietic Stem Cells,” J. Biol. Chem. 283: 25692-25705 (2008), which are hereby incorporated by reference in their entirety. FACS-purified MMP-low and MMP-high LT-HSCs were stained with Hoechst 33342 ([…]) at 37° C. for 45 minutes, followed by staining with pyronin Y (1 mg/ml) for an additional 15 minutes at 37° C. Cells were then washed in cold PBS, and resuspended in IMDM+2% FBS. Samples were immediately analyzed by flow cytometry.

[2] = tested on: MMP-low and MMP-high HSCs; assay: Autophagic vacuole formation / lysosomal localization of mitochondria (confocal immunofluorescence); assay type: cell-based, mouse
From the text: Immunofluorescence Staining, Imaging, and Analysis—Super Resolution Confocal Microscopy: Images were acquired with a Zeiss LSM 880 confocal microscope equipped with Airyscan Super Resolution Imaging module, using a 100×/1.46 Alpha Plan Apochromat objective lens (Zeiss MicroImaging, Jena, Germany) with “optimal” (Nyquist) XY scaling. Z stacks through the entire cell were acquired at an […] (at least 20 optical sections) using a pixel dwell time of >50 microseconds and field dimensions of […] (20 MMP-low and 20 MMP-high HSCs analyzed). This was followed by Airyscan image processing (set at auto but rarely over 6.2) and analyses using ZEN image acquisition and processing software (ZEN blue/black). Maximum intensity projections shown in the figures were also obtained using ZEN Blue software.
Lysosomal Localization of Mitochondria. FACS-sorted MMP-low and MMP-high HSCs (LSKCD150^+CD48^-MMP-low/-high) were treated with DMSO control or leupeptin […] for 4 hours. HSCs were then fixed and imaged for TOM20 (mitochondria) and LAMP1 (lysosomes).
Autophagic Vacuole Formation. Accumulation of autophagy substrates, Translocase of outer membrane 20 (TOM20) or Map11c3a (LC3), was determined in the presence of amino acid-containing (DMSO) or -starved amino acid-depleted media, v-ATPase inhibitor concanamycin A (ConA 40nM), inhibitor of autophagosome-autolysosome fusion chloroquine (CQ, […]), or protease inhibitor, leupeptin […] following guidelines outlined for study of autophagy (Klionsky et al., “Guidelines for the Use and Interpretation of Assays for Monitoring Autophagy (3rd Edition),” Autophagy 12(1): 1-222 (2016) and Martinez-Lopez et al., “Autophagy Proteins Regulate ERK Phosphorylation,” Nat. Commun. 4: 2799 (2013), which are hereby incorporated by reference in their entirety). In brief, FACS-sorted
MMP-low and MMP- high HSCs were cultured in the presence or absence of indicated inhibitors for 4, 5, or 18 hours following which cells were subjected to immunofluorescence assays for TOM20, LC3 and/or LAMP1 or LAMP2 as described above. Analyses were performed to quantify the turnover of indicated protein in lysosomes by evaluating the accumulation of TOM20 or LC3 in the presence versus absence of an inhibitor. TOM20 and LC3 flux were determined by subtracting the colocalized value of inhibitor-untreated TOM20 or LC3 with LAMP1 from corresponding inhibitor-treated values. Images were captured using a Zeiss LSM880 Airyscan confocal microscope using 100 X objectives (Leica), and percentage colocalization was calculated using the JACoP plugin (NIH ImageJ).
Mitochondrial and Lysosome Morphology: Freshly isolated HSCs were analyzed for mitochondrial morphology. Each individual HSC (150 total) was analyzed by using Arivis Vision 4D software and classified as either fragmented or not fragmented in accordance with number of surfaces. Cells that fulfilled the definition of ‘fragmented’ contained 3 or more individual mitochondrial surfaces (Kask et al., “Fluorescence-intensity Distribution Analysis and Its Application in Biomolecular Detection Technology,” Proc. Natl. Acad. Sci. USA 96(24): 13756-13761 (1999), which is hereby incorporated by reference in its entirety). Lysosomes' fluorescence intensity or area profiling was calculated using ImageJ software enabling the detection of fluorescently labeled […] boundaries (lysosomal marker LAMP1), as reflected by sharp increases or decreases in fluorescence intensity. Channels displaying fluorescence for either mitochondria or lysosomes were thresholded with the IsoData option to delimit the boundaries of mitochondrial networks and lysosome morphology. The resulting outlines were measured using the analyzed particles option to determine the size of distinct particles representing mitochondrial networks or lysosomes. More than 50 cells/condition/experiment were analyzed for lysosomes. […]

[3] = aging HSCs, ConA 40 nM, 60-hour

C/C=C/[C@H]1O[C@@](O)([C@@H](C)[C@H](O)[C@H](C)[C@H]2OC(=O)/C(OC)=C/C(C)=C/[C@@H](C)[C@@H](O)[C@@H](CC)[C@@H](O)[C@H](C)C/C(C)=C/C=C/[C@@H]2OC)C[C@@H](O[C@H]2C[C@@H](O)[C@H](OC(N)=O)[C@@H](C)O2)[C@@H]1C [ConA, concanamycin A]
frequency of non-dividing MMP-high GFP+ HSCs ([1]; ConA 40 nM, up to 60 hours): significantly increased
non-dividing MMP-low HSCs in culture ([1]; ConA 40 nM, up to 60 hours): only a slight effect
Number of wells with each number of cell division: 0 ([1]; MMP High + Con A (40 nM)): 23.8 ± 1.33
Number of wells with each number of cell division: 1 ([1]; MMP High + Con A (40 nM)): 8.8 ± 0.84
Number of wells with each number of cell division: Dead ([1]; MMP High + Con A (40 nM)): 14.4 ± 0.92
Number of wells with each number of cell division: ≥2 ([1]; MMP High + Con A (40 nM)): 7.4 ± 2.62
Number of wells with each number of cell division: 0 ([1]; MMP Low + Con A (40 nM)): 35.8 ± 8.89
Number of wells with each number of cell division: 1 ([1]; MMP Low + Con A (40 nM)): 7.4 ± 1.24
Number of wells with each number of cell division: Dead ([1]; MMP Low + Con A (40 nM)): 7 ± 1.51
Number of wells with each number of cell division: ≥2 ([1]; MMP Low + Con A (40 nM)): 4.6 ± 1.53
cell death of aging HSC in culture [1, 3]: without any increase in cell death
division of aging HSC in culture [1, 3]: divided less than non-treated HSC
fold increase of enlarged lysosomes, MMP-high HSCs ([2]; 5-hour ConA treatment, 40 nM): 35
fold increase of enlarged lysosomes, MMP-low HSCs ([2]; 5-hour ConA treatment, 40 nM): 32
increase of lysosomal localization of TOM20, MMP-high HSCs ([2]; ConA 40 nM): ~3 fold
increase of lysosomal localization of TOM20, MMP-low HSCs ([2]; ConA 40 nM): ~1.3 fold
mitochondrial fragmentation ([2]; ConA 40 nM): enhanced mitochondrial fragmentation
increase in LC3-positive puncta, MMP-high HSCs ([2]; ConA 40 nM, 18 hours): 3 fold
increase in LC3-positive puncta, MMP-low HSCs ([2]; ConA 40 nM, 18 hours): 1.33 fold
autolysosomal degradation (colocalization of LAMP1 with LC3) ([2]; ConA 40 nM, leupeptin 100 mM, chloroquine 40 mM, 18 hours, MMP-low and MMP-high HSCs): dramatically prevented autolysosomal degradation
